In one assay the target is T1, human TLR7 (Homo sapiens, UniProt Q9NYK1).
T1 construct: host or cells: HEK-Blue cells
T1 sequence (Q9NYK1 27-1049): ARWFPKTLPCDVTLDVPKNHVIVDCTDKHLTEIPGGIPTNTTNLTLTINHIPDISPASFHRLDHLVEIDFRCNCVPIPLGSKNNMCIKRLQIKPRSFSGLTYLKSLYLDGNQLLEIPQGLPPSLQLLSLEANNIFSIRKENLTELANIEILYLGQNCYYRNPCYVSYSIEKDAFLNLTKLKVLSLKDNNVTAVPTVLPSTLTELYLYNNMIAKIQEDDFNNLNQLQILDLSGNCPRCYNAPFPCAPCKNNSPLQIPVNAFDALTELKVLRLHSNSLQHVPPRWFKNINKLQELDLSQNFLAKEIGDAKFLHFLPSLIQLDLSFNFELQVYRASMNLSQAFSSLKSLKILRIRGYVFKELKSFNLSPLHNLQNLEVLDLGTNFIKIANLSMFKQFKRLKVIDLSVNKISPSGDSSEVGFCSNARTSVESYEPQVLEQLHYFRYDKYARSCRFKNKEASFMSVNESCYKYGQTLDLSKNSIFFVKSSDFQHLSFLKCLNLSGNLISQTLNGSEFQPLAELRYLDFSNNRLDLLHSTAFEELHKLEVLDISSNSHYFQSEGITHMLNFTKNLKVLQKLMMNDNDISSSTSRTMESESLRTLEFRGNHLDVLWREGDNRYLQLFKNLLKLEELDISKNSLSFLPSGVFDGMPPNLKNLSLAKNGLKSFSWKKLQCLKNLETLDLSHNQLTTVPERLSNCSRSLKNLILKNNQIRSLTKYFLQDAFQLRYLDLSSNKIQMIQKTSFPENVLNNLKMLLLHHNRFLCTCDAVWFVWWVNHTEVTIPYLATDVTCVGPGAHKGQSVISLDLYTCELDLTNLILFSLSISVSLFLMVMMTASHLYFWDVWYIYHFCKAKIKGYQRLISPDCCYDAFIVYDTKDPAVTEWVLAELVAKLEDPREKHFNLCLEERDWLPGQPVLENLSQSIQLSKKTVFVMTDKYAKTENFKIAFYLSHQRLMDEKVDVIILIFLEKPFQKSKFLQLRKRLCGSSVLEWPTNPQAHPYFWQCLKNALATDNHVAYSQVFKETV
Nature of the assay: TLR7 inhibition reporter assay (HEK-Blue SEAP reporter). Type of assay: cell-based. The following applies: HEK-Blue cells overexpressing human TLR7; gardiquimod 7.5 μM; 22 hour incubation. The procedure:
(§1) TLR7/8/9 Inhibition Reporter Assays
(§2) HEK-Blue™-cells (Invivogen) overexpressing human TLR7, TLR8 or TLR9 receptors were used for screening inhibitors of these receptors using an inducible SEAP (secreted embryonic alkaline phosphatase) reporter gene under the control of the IFN-β minimal promoter fused to five NF-κB and AP-1-binding sites. Briefly, cells are seeded into Greiner 384 well plates (15000 cells per well for TLR7, 20,000 for TLR8 and 25,000 for TLR9) and then treated with test compounds in DMSO to yield a final dose response concentration range of 0.05 nM-50 μM. After a 30 minute compound pre-treatment at room temperature, the cells are then stimulated with a TLR7 ligand (gardiquimod at a final concentration of 7.5 μM), TLR8 ligand (R848 at a final concentration of 15.9 μM) or TLR9 ligand (ODN2006 at a final concentration of 5 nM) to activate NF-κB and AP-1 which induce the production of SEAP. After a 22 hour incubation at 37° C., 5% CO2, SEAP levels are determined with the addition of HEK-Blue™ Detection reagent (Invivogen), a cell culture medium that allows for detection of SEAP, according to manufacturer's specifications. The percent inhibition is determined as the % reduction in the HEK-Blue signal present in wells treated with agonist plus DMSO alone compared to wells treated with a known inhibitor.
In general terms: In a reporter assay the amount or activity of a reporter protein is the signal.

The next assay deals with T2, human TLR9 (Homo sapiens, UniProt Q9NR96).
T2 construct: host or cells: HEK-Blue cells
T2 sequence (Q9NR96 26-1032): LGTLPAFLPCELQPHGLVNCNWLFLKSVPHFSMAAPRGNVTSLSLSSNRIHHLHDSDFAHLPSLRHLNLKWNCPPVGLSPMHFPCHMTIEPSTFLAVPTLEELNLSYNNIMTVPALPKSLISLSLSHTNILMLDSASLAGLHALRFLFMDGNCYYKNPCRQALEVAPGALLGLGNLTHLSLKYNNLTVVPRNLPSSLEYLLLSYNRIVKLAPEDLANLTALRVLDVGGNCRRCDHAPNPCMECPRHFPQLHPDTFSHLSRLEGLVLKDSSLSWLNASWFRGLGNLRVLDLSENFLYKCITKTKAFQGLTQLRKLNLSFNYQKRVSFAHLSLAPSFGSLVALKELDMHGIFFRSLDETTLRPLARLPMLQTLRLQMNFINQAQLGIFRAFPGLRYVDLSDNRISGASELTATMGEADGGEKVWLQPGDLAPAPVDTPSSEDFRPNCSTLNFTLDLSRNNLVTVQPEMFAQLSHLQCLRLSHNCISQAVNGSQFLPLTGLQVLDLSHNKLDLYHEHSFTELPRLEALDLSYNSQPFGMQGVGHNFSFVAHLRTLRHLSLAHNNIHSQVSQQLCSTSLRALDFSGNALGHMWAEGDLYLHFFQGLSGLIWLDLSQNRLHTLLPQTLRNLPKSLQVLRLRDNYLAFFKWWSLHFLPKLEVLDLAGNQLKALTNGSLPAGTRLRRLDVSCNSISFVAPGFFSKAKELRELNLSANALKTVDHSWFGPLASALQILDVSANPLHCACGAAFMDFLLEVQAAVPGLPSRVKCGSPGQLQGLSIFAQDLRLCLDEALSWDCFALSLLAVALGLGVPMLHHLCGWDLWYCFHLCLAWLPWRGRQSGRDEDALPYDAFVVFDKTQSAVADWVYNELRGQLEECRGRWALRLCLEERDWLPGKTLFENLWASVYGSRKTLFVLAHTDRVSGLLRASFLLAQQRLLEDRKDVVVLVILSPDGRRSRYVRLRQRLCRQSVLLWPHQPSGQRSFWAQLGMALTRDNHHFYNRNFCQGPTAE
Kind of assay: TLR9 inhibition reporter assay (HEK-Blue SEAP reporter). The class given is cell-based. The following applies: HEK-Blue cells overexpressing human TLR9; ODN2006 5 nM; 22 hour incubation. The procedure: as §1, §2

The IC50 is the concentration at which inhibition is half-maximal. Read a high IC50 as weaker potency. On to `COc1ccc(-c2[nH]c3ccc(N4CCC(N5CCN(C(C)=O)CC5)CC4)cc3c2C(C)C)cc1OC` [Example 82, 1-(4-(1-(2-(3,4-dimethoxyphenyl)-3-isopropyl-1H-indol-5-yl)piperidin-4-yl)piperazin-1-yl)ethan-1-one], for which the IC50 at human TLR7 turned out to be 0.114 µM; against human TLR9 it was 6.56 µM.
For `COc1ccc(-c2[nH]c3ccc(N4CCC(N5CCC(N(C)C)CC5)CC4)cc3c2C(C)C)cc1OC` [Example 83, 1′-(2-(3,4-dimethoxyphenyl)-3-isopropyl-1H-indol-5-yl)-N,N-dimethyl-[1,4′-bipiperidin]-4-amine], in that order: 0.287 µM and 1.29 µM.
For `CCc1c(-c2ccc(OC)c(OC)c2)[nH]c2ccc(N3CCCN(C4CCN(C(C)C)CC4)CC3)cc12` [Example 180, 2-(3,4-dimethoxyphenyl)-3-ethyl-5-(4-(1-isopropylpiperidin-4-yl)-1,4-diazepan-1-yl)-1H-indole], in that order: 0.537 µM and 0.652 µM.
The like results for `COc1ccc(-c2[nH]c3ccc(N4CCC(N5CCN(Cc6ccc(C)cc6)CC5)CC4)cc3c2C(C)C)cc1OC` [Example 101, 2-(3,4-dimethoxyphenyl)-3-isopropyl-5-(4-(4-(4-methylbenzyl)piperazin-1-yl)piperidin-1-yl)-1H-indole] were, in that order, 1.35 µM and 1.9 µM.
On to `COc1ccc(-c2[nH]c3ccc(NC4CCC(N5CCN(C(C)(C)C)CC5)CC4)cc3c2C(C)C)cc1OC` (stereo not shown) [Example 49, N-(4-(4-(tert-butyl)piperazin-1-yl)cyclohexyl)-2-(3,4-dimethoxyphenyl)-3-isopropyl-1H-indol-5-amine], for which the half-inhibitory concentration (IC50) against human TLR7 turned out to be 0.538 µM; on human TLR9, 0.512 µM.
The like results for `CC(C)c1c(-c2ccnc3[nH]ncc23)[nH]c2ccc(N3CCN(C4CCN(C(C)C)CC4)CC3)cc12` [Example 167, 4-(3-isopropyl-5-(4-(1-isopropylpiperidin-4-yl)piperazin-1-yl)-1H-indol-2-yl)-1H-pyrazolo[3,4-b]pyridine] were, in that order, 5.18 µM and 0.411 µM.
The like results for `CNCCNC1CCC(Nc2ccc3[nH]c(-c4ccc(OC)c(OC)c4)c(C(C)C)c3c2)CC1` (single isomer, unassigned) [Example 31, N1-(2-(3,4-dimethoxyphenyl)-3-isopropyl-1H-indol-5-yl)-N4-(2-(methylamino)ethyl)cyclohexane-1,4-diamine] were, in that order, 1.13 µM and 1.44 µM.
The like results for `CCc1c(-c2ccc(OC)c(OC)c2)[nH]c2ccc(N3CCC(OC4CCN(CC)CC4)CC3)cc12` [Example 188, 2-(3,4-dimethoxyphenyl)-3-ethyl-5-(4-((1-ethylpiperidin-4-yl)oxy)piperidin-1-yl)-1H-indole] were, in that order, 0.161 µM and 0.986 µM.
For `COc1ccc(-c2[nH]c3ccc(NC4CCC(NCCCN5CCOCC5)CC4)cc3c2C(C)C)cc1OC` (stereo not shown) [Example 55, N1-(2-(3,4-dimethoxyphenyl)-3-isopropyl-1H-indol-5-yl)-N4-(3-morpholinopropyl)cyclohexane-1,4-diamine], the IC50 turned out to be 0.167 µM on human TLR7 and 0.631 µM against human TLR9.
For `COc1ccc(-c2[nH]c3ccc(N4CCC(N5CCN(CC6CC6)CC5)CC4)cc3c2C(C)C)cc1OC` [Example 87, 5-(4-(4-(cyclopropylmethyl)piperazin-1-yl)piperidin-1-yl)-2-(3,4-dimethoxyphenyl)-3-isopropyl-1H-indole], in that order: 0.337 µM and 9.8 µM.
The like results for `COc1ccc(-c2[nH]c3ccc(NC4CCC(NCCCN5CCOCC5)CC4)cc3c2C(C)C)cc1OC` (stereo not shown) [Example 56, N1-(2-(3,4-dimethoxyphenyl)-3-isopropyl-1H-indol-5-yl)-N4-(3-morpholinopropyl)cyclohexane-1,4-diamine] were, in that order, 0.136 µM and 0.59 µM.
For `COc1ccc(-c2[nH]c3ccc(NC4CCC(NCCCN(C)C)CC4)cc3c2C(C)C)cc1OC` (stereo not shown) [Example 36, N1-(2-(3,4-dimethoxyphenyl)-3-isopropyl-1H-indol-5-yl)-N4-(3-(dimethylamino)propyl) cyclohexane-1,4-diamine], the concentration for half-maximal inhibition (IC50) was 0.225 µM against human TLR7 and 0.583 µM against human TLR9.
As for `COc1ccc(-c2[nH]c3ccc(N4CCC(N5CCN(CCN6CCCC6)CC5)CC4)cc3c2C(C)C)cc1OC` [Example 100, 2-(3,4-dimethoxyphenyl)-3-isopropyl-5-(4-(4-(2-(pyrrolidin-1-yl)ethyl)piperazin-1-yl)piperidin-1-yl)-1H-indole], the figures for the half-maximal inhibitory concentration (IC50) against human TLR7 and on human TLR9 were 0.102 µM and 1.01 µM, respectively.
In the case of `CCc1c(-c2ccc(OC)c(OC)c2)[nH]c2ccc(N(CC)C3CCN(C4CCN(C)CC4)CC3)cc12` [Example 28, 2-(3,4-dimethoxyphenyl)-N,3-diethyl-N-(1′-methyl-1,4′-bipiperidin-4-yl)-1H-indol-5-amine], the values for the half-inhibitory concentration (IC50) against human TLR7 and against human TLR9 were 2.22 µM and 0.627 µM, respectively.
The like results for `COc1ccc(-c2[nH]c3ccc(NC4CCC(NC5CCN(C)CC5)CC4)cc3c2C(C)C)cc1OC` (single isomer, unassigned) [Example 41, N1-(2-(3,4-dimethoxyphenyl)-3-isopropyl-1H-indol-5-yl)-N4-(1-methylpiperidin-4-yl)cyclohexane-1,4-diamine] were, in that order, 0.221 µM and 0.991 µM.
With `COc1ccc(-c2[nH]c3ccc(N4CCC(NCCN(C)C)CC4)cc3c2C(C)C)cc1OC` [Example 75, N1-(1-(2-(3,4-dimethoxyphenyl)-3-isopropyl-1H-indol-5-yl)piperidin-4-yl)-N2,N2-dimethylethane-1,2-diamine], the IC50 at human TLR7 came out at 0.206 µM; on human TLR9, 3.86 µM.
`COc1ccc(-c2[nH]c3ccc(NC4CCC(N5CCN(C(C)(C)C)CC5)CC4)cc3c2C(C)C)cc1OC` (stereo not shown) [Example 50, N-(4-(4-(tert-butyl)piperazin-1-yl)cyclohexyl)-2-(3,4-dimethoxyphenyl)-3-isopropyl-1H-indol-5-amine]: the IC50 worked out at 0.431 µM at human TLR7 and 0.561 µM against human TLR9.
